Reference: patent US20250188092A1, “RIFAMYCIN ANALOGS” (THE REGENTS OF THE UNIVERSITY OF MICHIGAN, priority 2021, published 2025)
≈ marks a conversion by molar mass, not a printed value. Like-named read-outs stand apart in the source and are kept apart here.

Tests used:
VERO cells (ATCC CRL-81) = experiment: Vero cell toxicity; assay type: cell-based; details: 72 hours exposure
Method: Cytotoxicity for a mammalian cell line was determined by exposing VERO cells (ATCC CRL-81) to serial dilutions of test compounds for 72 hours, followed by addition of resazurin and measurement of fluorescence after 4 hours incubation (Choules, et al., Antimnicrob. Agents Chemother. 2019, 63, e02204-02218).

MTB H37Rv ATCC 27294 = experiment: MIC, microplate Alamar Blue assay (MABA); assay type: cell-based, Mycobacterium tuberculosis
[1] = Mycobacterium tuberculosis, MTB H37Rv ATCC 27294, microplate Alamar Blue assay, lowest concentration giving ≥90% reduction in fluorescence
[2] = MTB H37Rv ATCC 27294, microplate Alamar Blue assay, lowest concentration giving ≥90% reduction in fluorescence

For CO[C@H]1/C=C/O[C@@]2(C)Oc3c(C)c(O)c4c(=O)c(c5oc6cccc(OCc7ccc(CN8CCOCC8)cc7)c6nc-5c4c3C2=O)NC(=O)/C(C)=C\C=C\[C@H](C)[C@H](O)[C@@H](C)[C@@H](O)[C@@H](C)[C@H](OC(C)=O)[C@@H]1C [Compound 16d, (7S,9E,11S,12R,13S,14R,15R,16R,17S,18S,19E,21Z)-2,15,17-Trihydroxy-11-methoxy-3,7,12,14,16,18,22-heptamethyl-32-({4-[(morpholin-4-yl)methyl]phenyl}methoxy)-6,23,37-trioxo-8,27,38-trioxa-24,34-diazahexacyclo[23.11.1.1^4,7.0^5,36.0^26,35.0^28,33]octatriaconta-1(36)2,4,9,19,21,25,28,30,32,34-undecaen-13-yl acetate], the IC50 (VERO cells (ATCC CRL-81); Chlorocebus sabaeus, Vero) was greater than 10 µM, the “MIC90 MABA Rel to RMP” value (MTB H37Rv ATCC 27294) was 0.07 and the MIC90 (MTB H37Rv ATCC 27294; [1]) was 3.7 nM. The “DPX2 Viability @ 6.25 μM” value (DPX2 cells; 24 h) was 79% and the “DPX2 Viability @ 25 μM” value (DPX2 cells; human) was 59%.

In the case of CO[C@H]1/C=C/O[C@@]2(C)Oc3c(C)c(O)c4c(=O)c(c5oc6cccc(OCc7ccc(CN8CCN(C)CC8)cc7)c6nc-5c4c3C2=O)NC(=O)/C(C)=C\C=C\[C@H](C)[C@H](O)[C@@H](C)[C@@H](O)[C@@H](C)[C@H](OC(C)=O)[C@@H]1C [Compound 16e, (7S,9E,11S,12R,13S,14R,15R,16R,17S,18S,19E,21Z)-2,15,17-trihydroxy-11-methoxy-3,7,12,14,16,18,22-heptamethyl-32-({4-[(4-methylpiperazin-1-yl)methyl]phenyl}methoxy)-6,23,37-trioxo-8,27,38-trioxa-24,34-diazahexacyclo[23.11.1.1^4,7.0^5,36.0^26,35.0^28,33]octatriaconta-1,3,5(36)9,19,21,25,28,30,32,34-undecaen-13-yl acetate], the IC50 (VERO cells (ATCC CRL-81); Chlorocebus sabaeus, Vero) is reported as greater than 10 µM, the “MIC90 MABA Rel to RMP” value (MTB H37Rv ATCC 27294) is reported as 0.16 and the MIC90 (MTB H37Rv ATCC 27294; [1]) is reported as 6.4 nM. The “DPX2 Viability @ 6.25 μM” value (DPX2 cells; 24 h) was 63% and the “DPX2 Viability @ 25 μM” value (DPX2 cells; human) was 41%.

With CO[C@H]1/C=C/O[C@@]2(C)Oc3c(C)c(O)c4c(=O)c(c5oc6cc(N7CCN(C(=O)C(C)(C)C)CC7)cc(OCc7ccc(CN8CCOCC8)cc7)c6nc-5c4c3C2=O)NC(=O)/C(C)=C\C=C\[C@H](C)[C@H](O)[C@@H](C)[C@@H](O)[C@@H](C)[C@H](OC(C)=O)[C@@H]1C [Compound 17f, (7S,9E,11S,12R,13S,14R,15R,16R,17S,18S,19E,21Z)-30-[4-(2,2-Dimethylpropanoyl)-piperazin-1-yl]-2,15,17-trihydroxy-11-methoxy-3,7,12,14,16,18,22-heptamethyl-32-({4-[(morpholin-4-yl)methyl]phenyl}methoxy)-6,23,37-trioxo-8,27,38-trioxa-24,34-diazahexacyclo[23.11.1.1^4,7.0^5,36.0^26,35.0^28,33]octatriaconta-1(36)2,4,9,19,21,25,28,30,32,34-undecaen-13-yl acetate] the IC50 (VERO cells (ATCC CRL-81); Chlorocebus sabaeus, Vero) was greater than 10 µM, the “MIC90 MABA Rel to RMP” value (MTB H37Rv ATCC 27294) was 1.0 and the MIC (MTB H37Rv ATCC 27294; Mycobacterium tuberculosis, MTB H37Rv ATCC 27294, microplate Alamar Blue assay, lowest concentration giving ≥90% reduction in fluorescence, read-out: MIC90 MABA) was 27 nM. For the same compound, the “DPX2 Viability @ 6.25 μM” value (DPX2 cells; 24 h) was 85% and the “DPX2 Viability @ 25 μM” value (DPX2 cells; human) was 71%.

With CO[C@H]1/C=C/O[C@@]2(C)Oc3c(C)c(O)c4c(=O)c(c5oc6cc(N7CCN(C(=O)C(C)(C)C)CC7)cc(C)c6nc-5c4c3C2=O)NC(=O)/C(C)=C\C=C\[C@H](C)[C@H](O)[C@@H](C)[C@@H](O)[C@@H](C)[C@H](OC(C)=O)[C@@H]1C [Compound 26f, (7S,9E,11S,12R,13S,14R,15R,16R,17S,18S,19E,21Z)-30-[4-(2,2-Dimethylpropanoyl)piperazin-1-yl]-2,15,17-trihydroxy-11-methoxy-3,7,12,14,16,18,22,32-octamethyl-6,23,37-trioxo-8,27,38-trioxa-24,34-diazahexacyclo[23.11.1.1^4,7.0^5,36.0^26,35.0^28,33]octatriaconta-1(36)2,4,9,19,21,25,28,30,32,34-undecaen-13-yl acetate] the “MIC90 MABA Rel to RMP” value (MTB H37Rv ATCC 27294) was 0.17, the MIC90 (MTB H37Rv ATCC 27294; [1]) was 4.6 nM and the “DPX2 Viability @ 6.25 μM” value (DPX2 cells; 24 h) was 111%. For the same compound, the “DPX2 Viability @ 25 μM” value (DPX2 cells; human) was 102%.

COC(=O)N1CCN(c2cc(C)c3nc4c5c6c7c(C)c(O)c5c(=O)c(c-4oc3c2)NC(=O)/C(C)=C\C=C\[C@H](C)[C@H](O)[C@@H](C)[C@@H](O)[C@@H](C)[C@H](OC(C)=O)[C@H](C)[C@@H](OC)/C=C/O[C@@](C)(O7)C6=O)CC1 [Compound 26g, Methyl 4-[(7S,9E,11S,12R,13S,14R,15R,16R,17S,18S,19E,21Z)-13-(acetyloxy)-2,15,17-trihydroxy-11-methoxy-3,7,12,14,16,18,22,32-octamethyl-6,23,37-trioxo-8,27,38-trioxa-24,34-diazahexacyclo[23.11.1.1^4,7.0^5,36.0^26,35.0^28,33]octatriaconta-1(36)2,4,9,19,21,25,28,30,32,34-undecaen-30-yl]piperazine-1-carboxylate] was tested, and the “MIC90 MABA Rel to RMP” value (MTB H37Rv ATCC 27294) was 0.18, the MIC90 (MTB H37Rv ATCC 27294; [1]) was 5 nM (≈ 4.71 ng/mL) and the “DPX2 Viability @ 6.25 μM” value (DPX2 cells; 24 h) was 111%. For the same compound, the “DPX2 Viability @ 25 μM” value (DPX2 cells; human) was 105%.

For CCOC(=O)N1CCN(c2cc(C)c3nc4c5c6c7c(C)c(O)c5c(=O)c(c-4oc3c2)NC(=O)/C(C)=C\C=C\[C@H](C)[C@H](O)[C@@H](C)[C@@H](O)[C@@H](C)[C@H](OC(C)=O)[C@H](C)[C@@H](OC)/C=C/O[C@@](C)(O7)C6=O)CC1 [Compound 26h, Ethyl 4-[(7S,9E,11S,12R,13S,14R,15R,16R,17S,18S,19E,21Z)-13-(acetyloxy)-2,15,17-trihydroxy-11-methoxy-3,7,12,14,16,18,22,32-octamethyl-6,23,37-trioxo-8,27,38-trioxa-24,34-diazahexacyclo[23.11.1.1^4,7.0^5,36.0^26,35.0^28,33]octatriaconta-1(36)2,4,9,19,21,25,28,30,32,34-undecaen-30-yl]piperazine-1-carboxylate], the “MIC90 MABA Rel to RMP” value (MTB H37Rv ATCC 27294) was 0.18, the MIC90 (MTB H37Rv ATCC 27294; [1]) was 4.9 nM (≈ 4.68 ng/mL) and the “DPX2 Viability @ 6.25 μM” value (DPX2 cells; 24 h) was 118%. For the same compound, the “DPX2 Viability @ 25 μM” value (DPX2 cells; human) was 110%.

For CO[C@H]1/C=C/O[C@@]2(C)Oc3c(C)c(O)c4c(=O)c(c5oc6cc(N7CCN(C(=O)OC(C)(C)C)CC7)cc(C)c6nc-5c4c3C2=O)NC(=O)/C(C)=C\C=C\[C@H](C)[C@H](O)[C@@H](C)[C@@H](O)[C@@H](C)[C@H](OC(C)=O)[C@@H]1C [Compound 26i, tert-Butyl 4-[(7S,9E,11S,12R,13S,14R,15R,16R,17S,18S,19E,21Z)-13-(acetyloxy)-2,15,17-trihydroxy-11-methoxy-3,7,12,14,16,18,22,32-octamethyl-6,23,37-trioxo-8,27,38-trioxa-24,34-diazahexacyclo[23.11.1.1^4,7.0^5,36.0^26,35.0^28,33]octatriaconta-1(36)2,4,9,19,21,25,28,30,32,34-undecaen-30-yl]piperazine-1-carboxylate], the “MIC90 MABA Rel to RMP” value (MTB H37Rv ATCC 27294) was 0.17, the MIC90 (MTB H37Rv ATCC 27294; [1]) was 4.7 nM (≈ 4.62 ng/mL) and the “DPX2 Viability @ 6.25 μM” value (DPX2 cells; 24 h) was 120%. For the same compound, the “DPX2 Viability @ 25 μM” value (DPX2 cells; human) was 102%.

In the case of CO[C@H]1/C=C/O[C@@]2(C)Oc3c(C)c(O)c4c(=O)c(c5oc6cc(N7CCN(CCCCCCO[C@@H]8COc9nc([N+](=O)[O-])cn9C8)CC7)cc(C)c6nc-5c4c3C2=O)NC(=O)/C(C)=C\C=C\[C@H](C)[C@H](O)[C@@H](C)[C@@H](O)[C@@H](C)[C@H](OC(C)=O)[C@@H]1C [Compound 29e, (7S,9E,11S,12R,13S,14R,15R,16R,17S,18S,19E,21Z)-2,15,17-Trihydroxy-11-methoxy-3,7,12,14,16,18,22,32-octamethyl-30-[4-(6-{[(6S)-2-nitro-5H,6H,7H-imidazo[2,1-b][1,3]oxazin-6-yl]oxy}hexyl)piperazin-1-yl]-6,23,37-trioxo-8,27,38-trioxa-24,34-diazahexacyclo[23.11.1.1^4,7.0^5,36.0^26,35.0^28,33]octatriaconta-1(36)2,4,9,19,21,25,28,30,32,34-undecaen-13-yl acetate], the “MIC90 MABA Rel to RMP” value (MTB H37Rv ATCC 27294) is reported as 0.07, the MIC90 (MTB H37Rv ATCC 27294; [1]) is reported as 2 nM and the “DPX2 Viability @ 6.25 μM” value (DPX2 cells; 24 h) is reported as 112%. For the same compound, the “DPX2 Viability @ 25 μM” value (DPX2 cells; human) was 99%.

CO[C@H]1/C=C/O[C@@]2(C)Oc3c(C)c(O)c4c(=O)c(c5oc6cc(C=O)cc(N7CCN(C)CC7)c6nc-5c4c3C2=O)NC(=O)/C(C)=C\C=C\[C@H](C)[C@H](O)[C@@H](C)[C@@H](O)[C@@H](C)[C@H](OC(C)=O)[C@@H]1C [Compound 30b, (7S,9E,11S,12R,13S,14R,15R,16R,17S,18S,19E,21Z)-30-Formyl-2,15,17-trihydroxy-11-methoxy-3,7,12,14,16,18,22-heptamethyl-32-(4-methylpiperazin-1-yl)-6,23,37-trioxo-8,27,38-trioxa-24,34-diazahexacyclo[23.11.1.1^4,7.0^5,36.0^26,35.0^28,33]octatriaconta-1(36)2,4,9,19,21,25,28,30,32,34-undecaen-13-yl acetate] was tested, and the IC50 (VERO cells (ATCC CRL-81)) was greater than 8 µM, the “MIC90 MABA Rel to RMP” value (MTB H37Rv ATCC 27294) was 1.37 and the MIC90 (MTB H37Rv ATCC 27294; [2]) was 37 nM.

For CO[C@H]1/C=C/O[C@@]2(C)Oc3c(C)c(O)c4c(=O)c(c5oc6cc(C=O)cc(N7CCN(CC(C)C)CC7)c6nc-5c4c3C2=O)NC(=O)/C(C)=C\C=C\[C@H](C)[C@H](O)[C@@H](C)[C@@H](O)[C@@H](C)[C@H](OC(C)=O)[C@@H]1C [Compound 30d, (7S,9E,11S,12R,13S,14R,15R,16R,17S,1S,19E,21Z)-30-Formyl-2,15,17-trihydroxy-11-methoxy-3,7,12,14,16,18,22-heptamethyl-32-[4-(2-methylpropyl)piperazin-1-yl]-6,23,37-trioxo-8,27,38-trioxa-24,34-diazahexacyclo[23.11.1.1^4,7.0^5,36.0^26,35.0^28,33]octatriaconta-1(36)2,4,9,19,21,25,28,30,32,34-undecaen-13-yl acetate], the IC50 (VERO cells (ATCC CRL-81)) was greater than 8 µM, the “MIC90 MABA Rel to RMP” value (MTB H37Rv ATCC 27294) was less than 0.6 and the MIC90 (MTB H37Rv ATCC 27294; [2]) was less than 16 nM.

For CO[C@H]1/C=C/O[C@@]2(C)Oc3c(C)c(O)c4c(c3C2=O)C2=NC3(CCN(CC(C)C)CC3)NC2=C(NC(=O)/C(C)=C\C=C\[C@H](C)[C@H](O)[C@@H](C)[C@@H](O)[C@@H](C)[C@H](OC(C)=O)[C@@H]1C)C4=O [RFB, rifabutin, reference compound], the “MIC90 MABA Rel to RMP” value (MTB H37Rv ATCC 27294) was 0.09, the MIC90 (MTB H37Rv ATCC 27294; [1]) was 2.4 nM (≈ 2.03 ng/mL) and the “DPX2 Viability @ 6.25 μM” value (DPX2 cells; human, 24 h) was 117%. For the same compound, the “DPX2 Viability @ 25 μM” value (DPX2 cells; human, 24 h, 25 μM) was 107%.
